# Results from US20220401514A1, “ANTIMICROBIAL, BACTERIOPHAGE-DERIVED POLYPEPTIDES AND THEIR USE AGAINST GRAM-NEGATIVE AND ACID-FAST BACTERIA” (CONTRAFECT CORPORATION, priority 2019, published 2022).
# Tests used:
# [1] = system: P. aeruginosa strain PAO1; test: MIC against PAO1 in Mueller-Hinton broth with 50% human plasma or human serum; type: cell-based, Pseudomonas aeruginosa; conditions: PAO1; for Minimal inhibitory concentration, Human Plasma: Mueller-Hinton broth with 50% human plasma; for Minimal inhibitory concentration, Human Serum: Mueller-Hinton broth with human serum
# LPS = test: Endotoxin neutralization, limulus amoebocyte lysate (LAL) enzyme assay, LPS binding; type: biochemical; conditions: LPS 0.8 EU/mL
# Description: CHEM. […] The standard reference samples contained only LPS dissolved in pyrogen-free water. Solutions were mixed well and incubated at 24° C. for 1 hour, and the manufacturers' test procedure for quantitative detection of endotoxins was followed.
# Escherichia coli = test: microbe, parasite or virus in culture; type: cell-based; conditions: Escherichia coli ATCC 25922; CAA supplemented with human serum
# Method in brief: (§1)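 Read-out is the minimal inhibitory concentration of each peptide, measured in serum-supplemented CAA.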
# Enterobacter cloacae = test: microbe, parasite or virus in culture; type: cell-based; conditions: Enterobacter cloacae ATCC 13047; CAA supplemented with human serum
# Method in brief: as §1
# [2] = system: P. aeruginosa strain PA20 persister cells; test: Activity against persister cells, P. aeruginosa; type: cell-based, Pseudomonas aeruginosa; conditions: P. aeruginosa PA20 persister cells
# [3] = system: carbapenem-resistant P. aeruginosa clinical isolate CFS-1292; test: MIC by modified CLSI broth microdilution against P. aeruginosa CFS-1292 (CAA, CAA + human serum); type: cell-based, Pseudomonas aeruginosa
# Klebsiella pneumoniae = type: cell-based; conditions: Klebsiella pneumoniae HM-44; CAA supplemented with human serum
# Description: Determination of Minimal Inhibitory Concentrations (MIC).
# Additional MIC testing was performed for several peptides against the ESKAPE pathogens Escherichia coli, Enterobacter cloacae, Klebsiella pneumoniae, and Acinetobacter baumannii, in CAA supplemented with human serum (Table D).
# Acinetobacter baumannii = test: microbe, parasite or virus in culture; type: cell-based; conditions: Acinetobacter baumannii ATCC BAA 747; CAA supplemented with human serum
# M. smegmatis = test: 45 hr MIC against M. smegmatis (NTM), Mueller Hinton broth; type: cell-based, Mycobacterium smegmatis; conditions: M. smegmatis MC^2 155, Run #1
# [4] = system: A. baumannii strain BAA-747 persister cells; test: Activity against persister cells, A. baumannii; type: cell-based, Acinetobacter baumannii; conditions: A. baumannii BAA-747 persister cells
# [5] = log10 CFU/mL reduction as compared to buffer
substance,measurement,setting,value
"Pediocin (KYYGNGVTCGKHSCSVDWGKATTCIINNGAMAWATGGHQGNHKC; Bacteriocin pediocin PA-1; UniProt P29430 19-62, looked up)","Minimal inhibitory concentration, Human Plasma",[1],>64 µg/mL
same,"Minimal inhibitory concentration, Human Serum",[1],>64 µg/mL
MAEQYELSQEQSEQLFSETALQMHEQNELQEIMQGGIEF [Chp5],LPS binding,"LPS; […]-64 μg/mL, 24° C., 1 hour",does not bind LPS
same,% LPS Bound,LPS; peptide concentration 0.5 μg/mL,0.1%
same,% LPS Bound,LPS; peptide concentration 1 μg/mL,0.1%
same,% LPS Bound,LPS; peptide concentration 2 μg/mL,0.1%
same,% LPS Bound,LPS; peptide concentration 4 μg/mL,0.1%
same,% LPS Bound,LPS; peptide concentration 8 μg/mL,5.4%
same,% LPS Bound,LPS; peptide concentration 16 μg/mL,0.1%
same,% LPS Bound,LPS; peptide concentration 32 μg/mL,0.1%
same,% LPS Bound,LPS; peptide concentration 64 μg/mL,0.9%
same,MIC,Escherichia coli,4 µg/mL
same,MIC,Enterobacter cloacae,>32 µg/mL
same,Viable persister count after treatment (log10 CFU/mL),"[2]; Run #1, limit of detection 2-log10 CFU/mL",4.4 Log10 (CFU/mL)
same,Viable persister count after treatment (log10 CFU/mL),"[2]; Run #2, limit of detection 2-log10 CFU/mL",4.3 Log10 (CFU/mL)
same,Viable persister count after treatment (log10 CFU/mL),"[2]; Run #3, limit of detection 2-log10 CFU/mL",3.1 Log10 (CFU/mL)
same,Viable persister count after treatment (log10 CFU/mL),[2]; average of 3 runs,3.9 Log10 (CFU/mL)
same,Delta Log,[2]; [5],0.5
same,MIC (μg/mL) against CFS-1292 in 100% CAA (1st run/2nd run),"[3]; 100% CAA, 1st run or single value",>32 µg/mL
same,MIC (μg/mL) against CFS-1292 in CAA + […] human serum,[3]; CAA + […] human serum,>32 µg/mL
same,MIC,Klebsiella pneumoniae,8 µg/mL
same,MIC,Acinetobacter baumannii,>32 µg/mL
same,45 hr MIC,M. smegmatis,>64 µg/mL
same,MIC Log10 (CFU/mL) Run #1,"[4]; 1 hour at 37° C., Run #1, limit of detection 1.6-log10 CFU/mL",4.1 Log10 (CFU/mL)
same,MIC Log10 (CFU/mL) Run #2,"[4]; 1 hour at 37° C., Run #2, limit of detection 1.6-log10 CFU/mL",5.1 Log10 (CFU/mL)
same,MIC Log10 (CFU/mL) Run #3,"[4]; 1 hour at 37° C., Run #3, limit of detection 1.6-log10 CFU/mL",4.5 Log10 (CFU/mL)
same,MIC Log10 (CFU/mL) Average,[4]; average of 3 runs,4.6 Log10 (CFU/mL)
same,Delta Log,[4]; [5],0.3
PGLa,"Minimal inhibitory concentration, Human Plasma",[1],>64 µg/mL
same,"Minimal inhibitory concentration, Human Serum",[1],>64 µg/mL
